Measurements published in PMC8662641, “Site-Specific Labeling of Endogenous Proteins Using CoLDR Chemistry” (Journal of the American Chemical Society, 2021).

System: Mino cells
Test: Pull-down proteomics in Mino cells
Assay type: cell-based, human
Experimental: The cells were lysed and “clicked” with biotin-azide, and the samples were incubated at room temperature for 1 h. The samples were then precipitated with methanol–chloroform (1 mL of methanol, 250 μL of chloroform, 750 μL of water), washed with 1 mL of methanol, and air-dried. The samples were solubilized, bound to streptavidin agarose beads in PBS for 3 h at 25 °C. The beads were washed, centrifuged, resuspended in Tris 50 mM pH 8, and transferred to a clean Eppendorf tube. After this, the bound proteins were eluted by boiling with 5% SDS then reduced with DTT, alkylated with iodoacetamide, and digested with trypsin. The samples were run on LC/MS/MS. The detailed procedure is available in the Supplementary Methods Section. […]
Pull-down proteomics experiments
1b or DMSO. The cells were spun down, washed with cold PBS and frozen. Then, each sample was lysed in 200 ul of RIPA for 15 minutes on ice and centrifuged at 20000 g at 4 °C. The protein in the supernatant was quantified using BCA. For each sample, […] of 1.65 mg/ml was prepared.
At this point, 5 ul of 5 mM biotin azide and 9 ul of 100 mM CuSO4:THPTA complex were added.
The click reaction was initiated by the addition of 7.5 ul of 150 mM sodium ascorbate, and the samples are incubated at room temperature for 1 hour. The samples were then precipitated with methanol: chloroform (1 ml methanol, 250 l chloroform, 750 l water), washed with 1 ml of methanol, and air dried. The dry pellet was resuspended in 1.2% SDS in PBS (250 l), sonicated as described before, and heated to 90 °C for 5 minutes. The samples were then diluted to 1.5 ml with PBS, and 50 ul of streptavidin agarose beads, prewashed with 0.2% SDS in PBS, were added, followed by 3 hour incubation at room temperature. Following the incubation, the beads were centrifuged 2 minutes 2000 g, and washed 4 times, with the following buffers (4 ml in each wash):
2% SDS; 0.1% sodium deoxycholate, 1% Triton X-100, 0.5 M NaCl, 1 mM EDTA, 50 mM HEPES pH = 7.5; 0.25 M NaCl, 0.5% IGEPAL, 0.5% sodium deoxycholate, 1 mM EDTA, 10 mM Tris pH = 8.1; 50 mM Tris pH = 7.4, 50 mM NaCl. The beads were then resuspended in Tris 50 mM pH = 8 and transferred to a clean Eppendorf tube.
At this point, the buffer was removed to leave a volume of 100 ul, and 100 ul of Tris 50 mM pH 8 + 10% SDS was added, and the samples were heated to 96 °C for 5 minutes. The samples were then centrifuged and the denatured, eluted proteins were transferred to new tubes. Then, 7.5 ul of 0.1 M DTT was added, and samples were incubated at 65 °C for 45 minutes. After the samples had cooled, 7.5 ul of iodoacetamide (0.2 M) were added, and the samples were incubated in the dark for 40 minutes at room temperature. At this point 1/10 volume of 12% phosphoric acid was added, and the samples were diluted 6-fold with 90% methanol + 50 mM ammonium bicarbonate. The samples were then loaded on s-trap micro columns (Protify) and the columns […]
were washed 3 times with 150 ul of 90% methanol + 50 mM ammonium bicarbonate. Then, 20 ul of 0.05 g/l of trypsin in 50 mM ammonium bicarbonate were added to the columns, and the samples were incubated at 47 °C for 90 minutes. Then 40 ul of 50 mM ammonium bicarbonate was added, followed by centrifugation and addition of 1 ul of 0.5 g/l trypsin to the eluate, which was incubated at 37C overnight. The column itself was then eluted using 40 ul of 0.2% formic acid and 40 ul 0.2% formic acid in 50% acetonitrile into a separate tube, which was kept at 4 °C. The two eluates were then combined and evaporated before running on LC/MS/MS.
Running samples on LC/MS/MS:
ULC/MS grade solvents were used for all chromatographic steps. Each sample was loaded using split-less nano-Ultra Performance Liquid Chromatography (10 kpsi nanoAcquity; Waters, Milford, MA, USA). The mobile phase was: A) H2O + 0.1% formic acid and B) acetonitrile + 0.1% formic acid. Desalting of the samples was performed online using a reversed-phase Symmetry C18 […]

## C#CCCNC(=O)C(=C)CN1CCC[C@@H](n2nc(-c3ccc(Oc4ccccc4)cc3)c3c(N)ncnc32)C1 [1b]
ACACA_HUMAN group, 1b relative to pretreatment by ibrutinib
  Log2(fold enrichment): 0.4315
ACACA_HUMAN group, 1b relative to treatment with DMSO
  Log2(fold enrichment): -0.2749
ACTG_HUMAN group, 1b relative to pretreatment by ibrutinib
  Log2(fold enrichment): 0.2725
ACTG_HUMAN group, 1b relative to treatment with DMSO
  Log2(fold enrichment): 0.2915
ALDOA_HUMAN, 1b relative to pretreatment by ibrutinib
  Log2(fold enrichment): 0.4926
ALDOA_HUMAN, 1b relative to treatment with DMSO
  Log2(fold enrichment): 0.06327
ANXA2_HUMAN group, 1b relative to pretreatment by ibrutinib
  Log2(fold enrichment): -0.9011
ANXA2_HUMAN group, 1b relative to treatment with DMSO
  Log2(fold enrichment): 0.8548
B3GT4_HUMAN, 1b relative to pretreatment by ibrutinib
  Log2(fold enrichment): 0.1405
B3GT4_HUMAN, 1b relative to treatment with DMSO
  Log2(fold enrichment): 2.2518
CAD15_HUMAN, 1b relative to pretreatment by ibrutinib
  Log2(fold enrichment): -2.753
CAD15_HUMAN, 1b relative to treatment with DMSO
  Log2(fold enrichment): -0.7397
CRERF_HUMAN, 1b relative to pretreatment by ibrutinib
  Log2(fold enrichment): -0.1083
CRERF_HUMAN, 1b relative to treatment with DMSO
  Log2(fold enrichment): -0.06839
CX062_HUMAN, 1b relative to pretreatment by ibrutinib
  Log2(fold enrichment): 3.426
CX062_HUMAN, 1b relative to treatment with DMSO
  Log2(fold enrichment): 2.336
CYB5B_HUMAN, 1b relative to pretreatment by ibrutinib
  Log2(fold enrichment): 4.3203
CYB5B_HUMAN, 1b relative to treatment with DMSO
  Log2(fold enrichment): 3.916
CYFP1_HUMAN, 1b relative to pretreatment by ibrutinib
  Log2(fold enrichment): 5.178
CYFP1_HUMAN, 1b relative to treatment with DMSO
  Log2(fold enrichment): 4.841
DCD_HUMAN, 1b relative to pretreatment by ibrutinib
  Log2(fold enrichment): 0.833
DCD_HUMAN, 1b relative to treatment with DMSO
  Log2(fold enrichment): 3.261
DESP_HUMAN, 1b relative to pretreatment by ibrutinib
  Log2(fold enrichment): -0.03598
DESP_HUMAN, 1b relative to treatment with DMSO
  Log2(fold enrichment): 1.065
DSC1_HUMAN, 1b relative to pretreatment by ibrutinib
  Log2(fold enrichment): -0.2037
DSC1_HUMAN, 1b relative to treatment with DMSO
  Log2(fold enrichment): 0.5233
DSG1_HUMAN, 1b relative to pretreatment by ibrutinib
  Log2(fold enrichment): -0.7862
DSG1_HUMAN, 1b relative to treatment with DMSO
  Log2(fold enrichment): 1.658
EF1A3_HUMAN group, 1b relative to pretreatment by ibrutinib
  Log2(fold enrichment): 0.1605
EF1A3_HUMAN group, 1b relative to treatment with DMSO
  Log2(fold enrichment): 0.3209
ELAF_HUMAN, 1b relative to pretreatment by ibrutinib
  Log2(fold enrichment): -0.07576
ELAF_HUMAN, 1b relative to treatment with DMSO
  Log2(fold enrichment): 3.288
ENOA_HUMAN, 1b relative to pretreatment by ibrutinib
  Log2(fold enrichment): 0.1924
ENOA_HUMAN, 1b relative to treatment with DMSO
  Log2(fold enrichment): 0.2037
EP400_HUMAN, 1b relative to pretreatment by ibrutinib
  Log2(fold enrichment): 1.834
EP400_HUMAN, 1b relative to treatment with DMSO
  Log2(fold enrichment): -0.06967
FABP5_HUMAN, 1b relative to pretreatment by ibrutinib
  Log2(fold enrichment): -0.02939
FABP5_HUMAN, 1b relative to treatment with DMSO
  Log2(fold enrichment): 1.253
G3P_HUMAN, 1b relative to pretreatment by ibrutinib
  Log2(fold enrichment): 0.2104
G3P_HUMAN, 1b relative to treatment with DMSO
  Log2(fold enrichment): 0.2112
GRAH_HUMAN, 1b relative to pretreatment by ibrutinib
  Log2(fold enrichment): -0.3838
GRAH_HUMAN, 1b relative to treatment with DMSO
  Log2(fold enrichment): 1.151
GSTP1_HUMAN, 1b relative to pretreatment by ibrutinib
  Log2(fold enrichment): 0.8097
GSTP1_HUMAN, 1b relative to treatment with DMSO
  Log2(fold enrichment): 1.004
HS90B_HUMAN group, 1b relative to pretreatment by ibrutinib
  Log2(fold enrichment): 0.4589
HS90B_HUMAN group, 1b relative to treatment with DMSO
  Log2(fold enrichment): 0.7364
HSP7C_HUMAN, 1b relative to pretreatment by ibrutinib
  Log2(fold enrichment): 0.6921
HSP7C_HUMAN, 1b relative to treatment with DMSO
  Log2(fold enrichment): 0.6391
K2C6B_HUMAN, 1b relative to pretreatment by ibrutinib
  Log2(fold enrichment): -0.8867
K2C6B_HUMAN, 1b relative to treatment with DMSO
  Log2(fold enrichment): 0.6152
